Experimental data reported in BindingDB's records for doi:10.1016/j.bmcl.2004.03.090 (Johnson & Johnson Pharmaceutical Research & Development, 2004).

The compounds below were run against Glycogen synthase kinase-3 beta (Oryctolagus cuniculus) (assay: Inhibitory concentration against rabbit glycogen synthase kinase-3 beta using protein phosphatase inhibitor-2 as substrate).
`CCn1cc(C2=C(c3cn(CCCO)c4ncccc34)C(=O)NC2=O)c2cccnc21` [3-(1-Ethyl-1H-pyrrolo[2,3-b]pyridin-3-yl)-4-[1-(3-hydroxy-propyl)-1H-pyrrolo[2,3-b]pyridin-3-yl]-pyrrole-2,5-dione] showed an IC50 of 65 nM. For `O=C1NC(=O)C(c2cn(CCCO)c3ncccc23)=C1c1ccc(F)cc1Cl` [3-(2-Chloro-4-fluoro-phenyl)-4-[1-(3-hydroxy-propyl)-1H-pyrrolo[2,3-b]pyridin-3-yl]-pyrrole-2,5-dione], the IC50 was 6 nM. `COc1ccccc1C1=C(c2cn(CCCNS(N)(=O)=O)c3ncccc23)C(=O)NC1=O` [3-(7-Azaindolyl)-4-arylmaleimide analogue] showed an IC50 of 20 nM. `O=C1NC(=O)C(c2cn(CCCO)c3ncccc23)=C1c1cccc2ccccc12` [3-[1-(3-Hydroxy-propyl)-1H-pyrrolo[2,3-b]pyridin-3-yl]-4-naphthalen-1-yl-pyrrole-2,5-dione] showed an IC50 of 31 nM. `O=C1NC(=O)C(c2cn(CCCO)c3ncccc23)=C1c1ccccn1` [3-[1-(3-Hydroxy-propyl)-1H-pyrrolo[2,3-b]pyridin-3-yl]-4-pyridin-2-yl-pyrrole-2,5-dione] showed an IC50 of 480 nM. `COc1ccccc1C1=C(c2cn(CCCNC=O)c3ncccc23)C(=O)NC1=O` [N-(3-{3-[4-(2-Methoxy-phenyl)-2,5-dioxo-2,5-dihydro-1H-pyrrol-3-yl]-pyrrolo[2,3-b]pyridin-1-yl}-propyl)-formamide] showed an IC50 of 8 nM. `COc1ccccc1C1=C(c2cn(CCCNS(C)(=O)=O)c3ncccc23)C(=O)NC1=O` [N-(3-{3-[4-(2-Methoxy-phenyl)-2,5-dioxo-2,5-dihydro-1H-pyrrol-3-yl]-pyrrolo[2,3-b]pyridin-1-yl}-propyl)-methanesulfonamide] showed an IC50 of 14 nM.
